# Experimental data from patent US20070066682A1, “Arylalkylamine vanadium (V) salts for the treatment and/or prevention of Diabetes mellitus” (priority 2005, published 2007).
# Entries after “also recorded” stand apart in the source; their conditions may differ.
# What was measured:
# diabetic rats = test: Plasma free fatty acids, triglycerides and cholesterol of diabetic rats; assay type: in vivo, rat
# Method: (§1) In glucose tolerance tests and in chronic treatments, circulating glucose concentrations were determined by a rapid glucose analyser (Accutrend® Sensor Comfort, Roche, Basel. Switzerland). Plasma insulin (IRI) concentration was determined by ELISA method using a kit obtained from Crystal Chem Inc. (Downers Grove, Ill.). Plasma triglycerides (Biosystems, Barcelona, Spain) and NEFAS (Wako Chemicals, Neuss, Germany) were determined with standard […] methods.
# [1] = test system: streptozotocin-induced diabetic rats; test: Chronic subcutaneous (osmotic minipump) treatment of streptozotocin (45 mg/kg) diabetic rats, glycemia; assay type: in vivo, rat; conditions: for glycemia during chronic subcutaneous treatment: 2.5 μmol/kg/day by osmotic minipumps, about two weeks, STZ 45 mg/kg rats, dihydrate
# Method: (§2) Male Wistar rats weighting 180-220 g were purchased from Harlan (Interfauna Ibèrica S.A., Spain). Diabetes was induced by a single intraperitoneal injection of a freshly prepared solution of streptozotocin (in some studies the dose was 45 mg/kg body weight and in some others 100 mg/kg body weight dissolved in 50 mM citrate buffer, pH 4.5). Only diabetic animals with glycemia above 300 mg/dl were used. The animals were housed in animal quarters at 22° C., with a 12 h light/12 h dark cycle and were fed ad libitum. All procedures used were approved by the animal ethical committee of the University of Barcelona, Spain. Male mice C57 BL/Ks bearing the db/db mutation (Jackson Laboratories, Bar Harbor, Me.) were purchased from Harlan France (Gannat, France). C57BL/6J male mice were assigned for 16 weeks to very high-fat diet containing (in kcal): 72% from fat, 28% from proteins and <1% from carbohydrates (Burcelin et al., 2002, Am. J. Physiol. Endocrinol. Metab 282: E834-E842).
# (§3) Osmotic minipumps delivering B6V10 (2.5 μmol/kg body wt/day) or decavanadate (2.5 μmol/kg body wt/day) were implanted subcutaneously in diabetic rats anaesthetised by ketamine hydrochloride (95 mg/kg) and xylasine (10 mg/kg). […] Glycemia was measured on arterio-venous blood collected from the tail vessels at 09:00 am for two weeks, before the administration of vanadate. Insulin concentrations were determined before and after treatment. In another set of experiments, B6V10 was orally administered at a single dose of 5 μmol/kg/day during the first week and 10 μmol/kg/day during 2 additional weeks by gastric gavage. A control group received the corresponding decavanadate salt in the absence of benzylamine. At the end of the treatment, animals were sacrificed and the liver, fat pad, heart and lung were kept at −80° C. and the plasma at −20° C. until their use for in vitro analysis.
# as §1
# The effect of chronic administration of hexaquis(benzylammonium) decavanadate on glycemia from diabetic rats was determined. Thus, diabetes was induced in rats by intravenous administration of streptozotocin, which destroys the β-pancreatic cells that produce insulin.
# Chronic in vivo efficacy of B6V10 was evaluated in streptozotocin-induced diabetic rats and in db/db mice. Streptozotocin-induced (45 mg/kg) diabetic rats were subcutaneously treated with hexaquis(benzylammonium) decavanadate (2.5 μmol/kg) (B6V10, solid squares, FIG. 8A) or with decavanadate (2.5 μmol/kg) (V10, open circles, FIG. 8A) delivered subcutaneously by osmotic minipumps implanted in the dorsal region. Diabetic rats were also sham-operated (untreated, solid diamonds, FIG. 8A). […] These experiments were repeated using an oral administration protocol. Streptozotocin-induced (45 mg/kg) diabetic rats were orally treated with hexaquis(benzylammonium) decavanadate (5 μmol/kg from day 0 to day 7 and 10 μmol/kg/day from day 7 to day 17) (B6V10, solid squares, FIG. 8B) or received decavanadate (10 μmol/kg) (V10, open circles, FIG. 8B). […]
# [2] = test system: streptozotocin-induced diabetic rats; test: Chronic oral treatment of streptozotocin (45 mg/kg) diabetic rats, glycemia; assay type: in vivo, rat
# Method: as §2, §3, §1
# The effect of the oral administration of hexaquis(benzylammonium) decavanadate on glycemia from diabetic rats was also studied. Diabetes was induced in rats by intravenous administration of streptozotocin, and subsequently, a hexaquis(benzylammonium) decavanadate or sodium decavanadate unique dose was administered to the rats. […] After seven days of treatment, the dose was increased at 10 μmol/kg/day which was maintained for an additional ten days. […] Thus, glycemia in sodium decavanadate treated rats was approximately 450 mg/dl and glycemia of hexaquis(benzylammonium) decavanadate treated rats was approximately 250 mg/dl.
# Chronic in vivo efficacy of B6V10 was evaluated in streptozotocin-induced diabetic rats and in db/db mice. Streptozotocin-induced (45 mg/kg) diabetic rats were subcutaneously treated with hexaquis(benzylammonium) decavanadate (2.5 μmol/kg) (B6V10, solid squares, FIG. 8A) or with decavanadate (2.5 μmol/kg) (V10, open circles, FIG. 8A) delivered subcutaneously by osmotic minipumps implanted in the dorsal region. Diabetic rats were also sham-operated (untreated, solid diamonds, FIG. 8A). […] These experiments were repeated using an oral administration protocol. Streptozotocin-induced (45 mg/kg) diabetic rats were orally treated with hexaquis(benzylammonium) decavanadate (5 μmol/kg from day 0 to day 7 and 10 μmol/kg/day from day 7 to day 17) (B6V10, solid squares, FIG. 8B) or received decavanadate (10 μmol/kg) (V10, open circles, FIG. 8B). Nondiabetic rats were also untreated (solid triangles, FIG. 8B).
# [3] = test system: isolated mouse adipocytes; test: Glucose transport (2-DG) in isolated mouse adipocytes; assay type: cell-based; conditions: 100 μM
# Method: Adipose cells from FVB mice were incubated for 45 minutes in basal conditions (Basal) or in the presence of 100 nM insulin (Ins), and different concentrations of hexaquis(benzylammonium) decavanadate (B6V10) in the absence or in the presence of 1 mM semicarbazide (SCZ) and thereafter, 2-DG transport was measured over 5 min.
# db/db mice = test: Chronic treatment of obese diabetic db/db mice, glycemia; assay type: in vivo, mouse
# Method: as §2
# [4] = Tolerability in treated animals; assay type: in vivo
substance,measurement,setting,value
hexaquis(benzylammonium) decavanadate (V) dihydrate [Entry B6V10],"plasma concentrations of free fatty acids, triglycerides and cholesterol",diabetic rats,"normalized the plasma concentrations of free fatty acids, triglycerides and cholesterol"
same,glycemia during chronic subcutaneous treatment,[1],ameliorated hyperglycemia; also recorded: significant correction of hyperglycemia; also recorded: significant differences in the B6V10 group compared to the untreated group from day 8 of treatment
same,glycemia during chronic subcutaneous treatment,[1]; listed as hexaquis(benzylammonium) decavanadate,rapid reduction of the hyperglycemia that was detected after only four days of treatment
same,glucose transport of adipocytes isolated from treated rats,"[1]; fourteen days of treatment, basal conditions",increased glucose transport under basal conditions equivalent to that seen in the presence of insulin
same,"glycemia, oral 5 μmol/kg/day",[2]; 5 μmol/kg/day for seven days,moderate decrease of hyperglycemia that was detected after but two days of treatment
same,"glycemia, oral dose increased to 10 μmol/kg/day",[2]; 10 μmol/kg/day for an additional ten days,additional decrease in glycemia
same,glycemia during chronic oral treatment,"[2]; daily oral, 17 days (5 then 10 μmol/kg/day), STZ 45 mg/kg rats, dihydrate",ameliorated hyperglycemia; also recorded: significant correction of hyperglycemia
same,glycemia,"[2]; oral treatment, after dose increase to 10 μmol/kg/day",approximately 250 mg/dl
same,stimulation of glucose transport (% increase),[3],93%
same,glycemia,db/db mice,ameliorated glycemia
same,toxicological side effects,[4]; at the doses used,did not show toxicological side effects
same,hypoglycemia,[4]; treated animals,did not cause hypoglycemia
